Literature values as cited in patent publication US9949942B2, “Sustained release delivery of active agents to treat glaucoma and ocular hypertension” (Mati Therapeutics Inc., priority 0208, dated 2018).

Assays:
[1] = man; after topical administration
[2] = not given; remark: listed apart in the source

CC(C)OC(=O)CCC/C=C\C[C@@H]1[C@@H](CC[C@@H](O)CCc2ccccc2)[C@H](O)C[C@@H]1O [Latanoprost, isopropyl-(Z)-7[(1R,2R,3R,5S)3,5-dihydroxy-2-[(3R)-3-hydroxy-5-phenylpentyl]cyclopentyl]-5-heptenoate]
frequency of retinal artery embolus, retinal detachment, vitreous hemorrhage from diabetic retinopathy (clinical trials): rarely reported | rate of upper respiratory tract infection/cold/flu (most common systemic adverse events) (clinical trials): approximately 4% | subjects requiring discontinuation of therapy because of intolerance to conjunctival hyperemia (clinical trials): Less than 1% | ocular adverse events: subjects affected (conjunctivitis, diplopia, discharge from the eye): Less than 1% | time to peak concentration in the aqueous humor [1]: about two | solubility in acetone, ethanol, ethyl acetate, isopropanol, methanol and octanol ([2]; acetone, ethanol, ethyl acetate, isopropanol, methanol, octanol): freely soluble | solubility in acetonitrile ([2]; acetonitrile): very soluble | solubility in water ([2]; water): practically insoluble
